Assay results as given in patent publication US10071095B2, “1,2,4-triazolo [4,3-A] pyridine derivatives and their use for the treatment of neurological and psychiatric disorders” (JANSSEN PHARMACEUTICALS, INC., priority 2009, dated 2018).
Where two headings read alike, the source gives them in different places. Marks after values point to notes of the source that are not given here.

Tests used:
[1] = test system: PCP-induced hyperlocomotion in male NMRI mice; assay: Phencyclidine (PCP)-induced hyperlocomotion in mice (video tracking); format: in vivo; details: for ED50: Mus musculus, read-out: Mice ED50 (mg/kg) PCP-Inh.; for Mice ED50 (mg/kg) PCP-Inh. / Mice ED50 (mg/kg) PCP-Inh., estimated ED50 (footnote a): inhibition of PCP-induced hyperlocomotion; for Mice ED50 (mg/kg) PCP-Inh.: dose at which 50% of the tested animals show the effect; for Mice ED50 (mg/kg) PCP-Inh., estimated ED50 (footnote a): estimated ED50 values (n = 3 per dose; 4-fold separation between doses)
Protocol: Motor Activity (Video Tracking)
Apparatus and General Procedure
On the day of experiments, the mice were brought into the procedural room. They were housed individually and allowed to acclimate for at least a half hour prior to testing. Although the studies were conducted during the light cycle (from 8:00 to 16:00 h), the procedure room was only sparsely lit (3 to 30 LUX) to provide better contrast for the video tracking. Local lighting was used for the injection procedures. During each trial, an individual mouse was placed in an open field arena (grey PVC cylinder with a height of 40 cm and a diameter of 22.5 cm). Each arena was placed on an infrared LED (8×8 LEDs)-lit box (white PVC squared box; 40×40 cm^2; height 12.5 cm). Each mouse was placed in the center of the arena and allowed to explore freely for 30 min. After each trial, the arena was cleaned with a wet and subsequently with a dry cleaning cloth. An infrared sensitive tube camera and a white light source (in arena: 4-7 LUX) were mounted to the ceiling above the observation chamber to record and input activity to a computer. Animal behavior was recorded and analyzed using the Noldus Ethovision XT Video Tracking System (Version 3.1; Noldus, Wageningen, The Netherlands). The total distance traveled (cm) was calculated. Data were then exported to data management systems for further analysis and reporting.
Phencyclidine (PCP)-Induced Hyperlocomotion in Mice
Test compound or solvent was administered at a pre-defined time before measurement (standard: 30 min) to male NMRI mice that were challenged with phencyclidine (PCP; 5 mg/kg, s.c.) 30 min before measurement. Activity was measured for a period of 30 min.

human mGluR2 receptor = target: T1, human mGluR2 receptor (Homo sapiens, UniProt Q14416); assay: [35S]GTPγS binding assay, positive allosteric modulation (GTPγS-PAM) in presence of EC20 glutamate; format: biochemical; details: in presence of glutamate at EC20, average pEC50 if more experiments, ‡ means tested once; for EC50: read-out: GTPγS - hR2 PAM pEC50 (converted)
T1 construct: expressed in transfected cells; host or cells: CHO cells
T1 sequence (Q14416 19-872): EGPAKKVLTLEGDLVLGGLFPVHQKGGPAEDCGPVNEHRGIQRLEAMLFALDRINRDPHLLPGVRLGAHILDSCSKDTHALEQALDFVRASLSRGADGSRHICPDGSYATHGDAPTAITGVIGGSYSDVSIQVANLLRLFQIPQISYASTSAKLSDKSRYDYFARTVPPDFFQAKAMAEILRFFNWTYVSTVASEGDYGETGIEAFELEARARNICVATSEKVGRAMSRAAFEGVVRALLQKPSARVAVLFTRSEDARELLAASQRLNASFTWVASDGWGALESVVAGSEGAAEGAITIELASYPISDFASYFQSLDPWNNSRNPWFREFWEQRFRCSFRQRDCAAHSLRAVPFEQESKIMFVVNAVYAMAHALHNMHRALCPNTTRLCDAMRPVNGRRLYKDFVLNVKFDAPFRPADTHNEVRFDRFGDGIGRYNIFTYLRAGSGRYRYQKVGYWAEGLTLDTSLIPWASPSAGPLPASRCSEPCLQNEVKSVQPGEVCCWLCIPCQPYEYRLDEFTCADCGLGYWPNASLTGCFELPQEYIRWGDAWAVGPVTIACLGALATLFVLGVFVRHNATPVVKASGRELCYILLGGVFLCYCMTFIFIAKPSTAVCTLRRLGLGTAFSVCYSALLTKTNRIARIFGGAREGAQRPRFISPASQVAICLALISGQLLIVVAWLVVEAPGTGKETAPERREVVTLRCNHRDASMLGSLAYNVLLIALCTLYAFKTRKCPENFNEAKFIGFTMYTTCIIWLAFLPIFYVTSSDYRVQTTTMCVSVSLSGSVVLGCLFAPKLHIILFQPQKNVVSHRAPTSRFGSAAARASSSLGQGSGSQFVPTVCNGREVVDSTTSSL
Procedure, shortened: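 Membranes from butyrate-stimulated CHO cells expressing human mGluR2 (7 μg protein) preincubated 30 min at 30°C with compound plus ~EC20 glutamate in HEPES pH 7.4, 100 mM NaCl, 3 mM MgCl2, 10 μM GDP, 10 μg/ml saponin. [35S]GTPγS (0.1 nM) incorporation over 30 min at 30°C measured by filtration and scintillation counting.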

[2] = test system: conditioned avoidance response in male Wiga Wistar rats; assay: Conditioned avoidance response (CAR) test in rats; format: in vivo; details: for ED50: Rattus norvegicus, po, read-out: ED50 (mg/kg) CAR-Inh.
From the text: Conditioned Avoidance Response (CAR) Test
The apparatus consisted of an inner box surrounded by an outer box. The inner box was composed of four walls of transparent, synthetic material (length×width×height: 30×30×30 cm), an open top, and a grid floor made of 15 pairs of iron bars (2 mm diameter; 6 mm inter-bar distance). Odd and even bars were connected with a source of alternative current (1.0 mA; Coulbourn Instruments Solid State Shocker/Distributor), which could be interrupted by a switch. The outer box was composed of the same material (length×width×height: 40×40×36 cm), also with an open top, with a distance of 5 cm between the inner and outer box on all sides. To decrease the amount of environmental stimuli, three walls of the outer box were made non-transparent. The front wall was left transparent to allow the necessary inspection of the animal during the test. The upper edge of the outer and inner box served as a target for the rats on which to jump with fore- and hind-paws, respectively.
Avoidance Conditioning and Selection of Animals
From their arrival in the laboratory on the experimental day, male Wiga Wistar rats (230±30 g) were housed in individual cages provided with bedding material.
Latency to avoidance was recorded. The median avoidance response obtained over the three experimental sessions for each rat were used for further calculations.

[3] = test system: memantine-induced 2DG uptake in mouse brain (hippocampus); assay: Reversal of memantine-induced brain activation ([14C]2DG uptake) in mice; format: in vivo; details: for L.A.D. (lowest active dose for significant reduction of 2DG uptake in hippocampus vs memantine response): mice C57BL/6, s.c., memantine 20 mg/kg s.c., p<0.05
Protocol: Reversal of Memantine-Induced Brain Activation in Mice
NMDA receptor hypofunction is hypothesized to be involved in schizophrenia.
Autoradiographic assessment of radiolabeled [^14C]-2-deoxyglucose ([^14C]2DG) uptake is commonly used to investigate brain activation. In humans, cerebral blood flow is increased in specific brain regions after administration of a subanaesthetic dose of ketamine.
Male mice (C57BL/6, weight 24-28 g, fasted overnight; n=10 animals per group) were treated with vehicle or test compound (s.c.) in randomized order (t=0 min). Memantine (20 mg/kg, s.c.) was injected 30 min later (t=30 min). At t=45 min, [^14C]2DG (0.16 μCi/g) was administered intraperitoneally (i.p.), followed by a 45 min uptake period. Animals were decapitated (t=90 min), plasma glucose levels measured, the brain removed, rapidly frozen and stored at −20° C. until sectioned. Brain sections were exposed together to a precalibrated [^14C]standard on film, which was developed after four days of exposure. Local tissue [^14C]concentration (nCi/mg tissue equivalent—TEQ—) in each region of interest was determined.
Data was analyzed statistically using a two-way ANOVA analysis followed by post-hoc tests (memantine response versus reversal by the compound). The results are shown in table 5 below, expressed as lowest active dose (L.A.D.) required to exert a statistically significant (p<0.05) reduction of 2DG uptake in the hippocampus compared to memantine response.

[4] = compound administered orally (*); a)/b) = estimated ED50 values
[5] = not marked * (not oral; injection per method); b) = estimated ED50 values (n = 3 per dose)

Which results are given for `FC(F)(F)C1(c2ccccc2)CCN(c2ccn3c(CC4CC4)nnc3c2Cl)CC1` [compound 15, 8-Chloro-3-(cyclopropylmethyl)-7-(4-trifluoromethyl-4-phenyl-piperidin-1-yl)-1,2,4-triazolo[4,3-a]pyridine]?
ED50 [1]: > 10 mg/kg; GTPγS - hR2 PAM pEC50 (human mGluR2 receptor): 6.75; ED50 [2, 4]: ≥ 40 mg/kg; melting point: 276.7 °C

Which results are given for `FC(F)(F)c1c(N2CCC3(CC2)COc2ccccc23)ccn2c(CC3CC3)nnc12` [compound 17, 1′-[3-cyclopropylmethyl-8-(trifluoromethyl)[1,2,4]triazolo[4,3-a]pyridin-7-yl]-spiro[1-benzofuran-3,4′-piperidine]]?
ED50 [1]: 15.2 mg/kg; inhibition of PCP-induced hyperlocomotion in mice (in words) [1]: inhibited; EC50 (human mGluR2 receptor): 35.5 nM; melting point: > 300 °C

Which “inhibition of PCP-induced hyperlocomotion in mice (in words)” value (shortened to “inhibition … in mice (in words)”) [1] does the source give for `FC(F)(F)c1c(N2CCN(c3ccccc3)CC2)ccn2c(CC3CC3)nnc12` [compound 76] here?
Its value is “inhibited”.

What about the “Mice ED50 (mg/kg) PCP-Inh.” value [1] of the same molecule?
Its value is 3.1^ mg/kg.

What about the “GTPγS - hR2 PAM pEC50” value (human mGluR2 receptor) of the same molecule?
The value was 6.93.

And the “ED50 (mg/kg) CAR-Inh.” value [2, 4]?
Its value is ≥40* mg/kg.

For `FC(F)(F)Cc1nnc2c(Cl)c(N3CCC4(CC3)COc3ccccc34)ccn12` [compound 98], which “Mice ED50 (mg/kg) PCP-Inh.” value [1] is on record?
Its value is greater than 40 mg/kg.

And the “GTPγS - hR2 PAM pEC50” value (human mGluR2 receptor)?
Its value is 6.75.

And the “L.A.D. (lowest active dose for significant reduction of 2DG uptake in hippocampus vs memantine response)” value [3]?
Its value is ≤10 mg/kg, s.c.

For `CC1(C)OC2(CCN(c3ccn4c(CC5CC5)nnc4c3C(F)(F)F)CC2)c2ccccc21` [compound 112, 1′-[3-cyclopropylmethyl-8-(trifluoromethyl)[1,2,4]triazolo[4,3-a]pyridin-7-yl]-3,3-dimethyl-3H-spiro[benzo[c]furan-1,4′-piperidine]], which ED50 [1] is on record?
Its ED50 is 2 mg/kg.

And the “inhibition … in mice (in words)” value [1]?
Its value is “inhibited”.

What about the EC50 (human mGluR2 receptor) of the same molecule?
The EC50 was 6.46 nM.

And the “L.A.D. (lowest active dose for significant reduction of 2DG uptake in hippocampus vs memantine response)” value [3]?
The value was ≤2.5 mg/kg, s.c.

And the melting point?
Its melting point is 207.7 °C.

With `CC1(c2ccccn2)CCN(c2ccn3c(CC4CC4)nnc3c2C(F)(F)F)CC1` [compound 148, 8-Trifluoromethyl-3-(cyclopropylmethyl)-7-(4-methyl-4-(2-pyridinyl)-piperidin-1-yl)-1,2,4-triazolo[4,3-a]pyridine] as the molecule, how does the EC50 (human mGluR2 receptor) read?
Its EC50 is 363 nM.

And the melting point?
Its melting point is greater than 300 °C.

For `CC1(c2ccccc2)CCN(c2ccn3c(CC4CC4)nnc3c2C(F)(F)F)CC1` [compound 151], which “inhibition … in mice (in words)” value [1] is on record?
The value was “inhibited”.

What about the “Mice ED50 (mg/kg) PCP-Inh., estimated ED50 (footnote a)” value [1] of the same molecule?
Its value is 12.6 ^a) mg/kg.

What about the “GTPγS - hR2 PAM pEC50” value (human mGluR2 receptor) of the same molecule?
The value was 7.48.

What about the “L.A.D. (lowest active dose for significant reduction of 2DG uptake in hippocampus vs memantine response)” value [3] of the same molecule?
The value was 10 mg/kg, s.c.

What does the source list for `FC(F)(F)c1c(N2CCC(c3ccccc3)CC2)ccn2c(Cc3ccccn3)nnc12` [compound 153, 8-Trifluoromethyl-3-(2-pyridinylmethyl)-7-(4-phenylpiperidin-1-yl)-1,2,4-triazolo[4,3-a]pyridine]?
EC50 (human mGluR2 receptor): 195 nM; melting point: > 300 °C

For `c1ccc(C2CCN(c3ccn4c(CC5CC5)nnc4c3C3CC3)CC2)cc1` [compound 159, 3-Cyclopropylmethyl-8-cyclopropyl-7-(4-phenylpiperidin-1-yl)-[1,2,4]triazolo[4,3-a]pyridine], which EC50 (human mGluR2 receptor) is on record?
The EC50 was 204 nM.

What about the melting point of the same molecule?
The melting point was greater than 300 °C.

For `CCc1c(N2CCC(c3ccccc3)CC2)ccn2c(CC3CC3)nnc12` [compound 171, 3-Cyclopropylmethyl-8-ethyl-7-(4-phenylpiperidin-1-yl)-[1,2,4]triazolo[4,3-a]pyridine], which EC50 (human mGluR2 receptor) is on record?
The EC50 was 251 nM.

What about the melting point of the same molecule?
The melting point was greater than 300 °C.

Which results are given for `C[C@@H]1CN(c2ccn3c(CC4CC4)nnc3c2C(F)(F)F)CCN1c1cc(F)cc(F)c1` [compound 182, 3-(Cyclopropylmethyl)-7-((3R)-4-3,5-difluorophenyl-3-methylpiperazin-1-yl)-(8-trifluoromethyl)-1,2,4-triazolo[4,3-a]pyridine]?
EC50 (human mGluR2 receptor): 93.3 nM; melting point: 147.5 °C

Which results are given for `Cc1c(C2CCN(c3ccc(F)cc3F)CC2)ccn2c(CC3CC3)nnc12` [compound 204, 3-Cyclopropylmethyl-7-[1-(2,4-difluoro-phenyl)-piperidin-4-yl]-8-methyl-[1,2,4]triazolo[4,3-a]pyridine]?
EC50 (human mGluR2 receptor): 1350 nM; melting point: 283.5 °C

With `Brc1c(N2CCC(c3ccccc3)CC2)ccn2c(CC3CC3)nnc12` [compound 207, 8-Bromo-3-cyclopropylmethyl-7-[4-phenylpiperidin-1-yl]-[1,2,4]triazolo[4,3-a]pyridine] as the molecule, how does the EC50 (human mGluR2 receptor) read?
The EC50 was 35.5 nM.

And the melting point?
The melting point was 281.5 °C.

What does the source list for `Fc1ccc(N2CCN(Cc3ccn4c(CC5CC5)nnc4c3C(F)(F)F)CC2)c(F)c1` [compound 224, 3-(Cyclopropylmethyl)-7-[[4-(2,4-difluorophenyl)-1-piperazinyl]methyl]-8-(trifluoromethyl)-1,2,4-triazolo[4,3-a]pyridine]?
inhibition of PCP-induced hyperlocomotion in mice (in words) [1]: inhibited; Mice ED50 (mg/kg) PCP-Inh., estimated ED50 (footnote a) [1]: 2.0 ^a) mg/kg; inhibition of the conditioned avoidance response in rats (in words) [2]: inhibited; ED50 [2, 5]: 5 mg/kg

Which results are given for `CC(c1ccn2c(CC3CC3)nnc2c1C(F)(F)F)N1CCC(c2ccccc2)CC1` (stereo not drawn) [compound 244, 3-cyclopropylmethyl-7-[1-(4-phenyl-1-piperidinyl)ethyl]-8-trifluoromethyl-1,2,4-triazolo[4,3-a]pyridine]?
Mice ED50 (mg/kg) PCP-Inh., estimated ED50 (footnote a) [1]: 5.0 ^a) mg/kg; EC50 (human mGluR2 receptor): 24 nM; melting point: 142.3 °C

For `CC(c1ccn2c(CC3CC3)nnc2c1Cl)N1CCC(c2ccccc2)CC1` (stereo not drawn) [compound 255], which EC50 (human mGluR2 receptor) is on record?
The EC50 was 166 nM.

And the melting point?
Its melting point is 182.1 °C.

What does the source list for `Fc1cccc(F)c1N1CCN(Cc2ccn3c(CC4CC4)nnc3c2Cl)CC1` [compound 282]?
EC50 (human mGluR2 receptor): 204 nM; melting point: 180.4 °C

What does the source list for `FC(F)(F)c1c(CN2CCC(c3ccccc3)CC2)ccn2c(CC3CC3)nnc12` [compound 298, 3-(Cyclopropylmethyl)-7-[(4-phenyl-1-piperidinyl)methyl]-8-(trifluoromethyl)-1,2,4-triazolo[4,3-a]pyridine]?
inhibition of PCP-induced hyperlocomotion in mice (in words) [1]: inhibited; Mice ED50 (mg/kg) PCP-Inh., estimated ED50 (footnote a) [1]: 5.0 ^a) mg/kg; inhibition of the conditioned avoidance response in rats (in words) [2]: inhibited; ED50 [2, 5]: 5 mg/kg

For `O=C(CCCN1CCC(O)(c2ccc(Cl)cc2)CC1)c1ccc(F)cc1` [haloperidol, reference compound], which “effect on memantine-induced brain glucose metabolism / 2DG uptake (in words)” value ([3]; mouse brain, reference drugs) is on record?
Its value is “inactive”.
